According to patent US20250186439A1, “PYK2 INHIBITION MODULATES IMMUNE CELL FUNCTION” (The Children's Medical Center Corporation, priority 2022, published 2025):
“Also recorded” adds a separate entry of the source.

What was measured:
Type in all cases: cell-based, mouse
Raw264.7 = assay: RANKL-induced osteoclast differentiation of Raw264.7 cells (TRAP activity and staining); settings: for TRAP activity: listed as Pyk2 inhibitor
Procedure: FIGS. 8A-8F. Effect of Pyk2 inhibition on RANKL induced osteoclast differentiation. FIG. 8A: Schematic depicting the experimental design for testing the effect of Pyk2 inhibition on RANKL-induced osteoclast differentiation. On day 1, Raw264.7 macrophages are pretreated with Pyk2 inhibitor and then treated on day 2 with fresh culture medium comprising 100 ng/mL RANKL to stimulate differentiation to osteoclasts. The quantity of mature, differentiated osteoclasts is measured by tartrate-resistant acid […] (TRAP) activity on day 6. FIG. 8B: TRAP activity of mature, differentiated osteoclasts treated as described in FIG. 8A. […] FIG. 8C: Phase-contrast microscope images of TRAP-stained osteoclasts, treated as described in FIG. 8A, at ×20 magnification. FIG. 8D: Schematic depicting the experimental design for testing the effect of Pyk2 inhibition on RANKL-induced osteoclast differentiation. On day 2, Raw264.7 macrophages are treated with fresh culture medium comprising 100 ng/mL RANKL to stimulate differentiation to osteoclasts, then are subsequently treated on day 3 with Pyk2 inhibitor. FIG. 8E: TRAP activity of mature, differentiated osteoclasts treated as described in FIG. 8D. […] FIG. 8F: Phase-contrast microscope images of TRAP-stained osteoclasts, treated as described in FIG. 8D, at ×20 magnification.
To explore this question, an Abelson leukemia virus transformed monocyte/macrophage-like cell line derived from BALB/c mice, Raw264.7, was used. To induce differentiation to osteoclasts, Raw264.7 cells were treated with receptor activator of nuclear factor kappa-B ligand (RANKL), also known as osteoclast differentiation factor (ODF). Raw264.7 cells and differentiated osteoclasts were treated with Pyk2 inhibitor, as in Example 2.
Raw264.7 cells were cultured and treated with Pyk2 inhibitors after 24 hours, then differentiated into osteoclasts after 24 hours of Pyk2 inhibitor treatment (FIG. 8A). Four days after differentiation into osteoclasts, the cells were then assessed for tartrate-resistant acid phosphatase (TRAP) activity and presence, as TRAP is a biomarker expressed by mature, differentiated osteoclasts, but not undifferentiated progenitor cells.
Therefore, the effect of Pyk2 inhibition was also assessed by culturing RAW264.7 cells, differentiating into osteoclasts after 2 days, the treating with Pyk2 inhibitor for 24 hours, 1 day after differentiating (FIG. 8D). […] Therefore, Pyk2 inhibition could ultimately result in an increase in bone mass.

[1] = system: IL-6, IL-1β, IL-10, and TGF-β mRNA; assay: Cytokine/chemokine mRNA levels (qPCR) in sorted MG6 cells; settings: qPCR after inhibitor treatment
Procedure: FIGS. 7A-7D. Pyk2 inhibition promotes the phagocytotic activity and inflammatory responses in microglia. FIG. 7A: Quantification of the effect of Pyk2 inhibitor treatment on proliferation of mononucleated and multinucleated MG6 cells. MG6 cells were pretreated with 1000 nM Pyk2 inhibitor for 24 hours and mono-/multi-nuclear cells were isolated and collected by fluorescent activated cell sorting. […] There is no difference in proliferation of mononuclear cells after Pyk2 inhibitor treatment compared to untreated control cells. FIG. 7B: Fluorescent imaging depicting the effect of Pyk2 inhibitor on phagocytosis of mononucleated and multinucleated MG6 cells. MG6 cells were pretreated with 1000 nM Pyk2 inhibitor for 24 hours and mono-/multi-nuclear cells were isolated and collected by fluorescent activated cell sorting. After sorting, cells were treated with pHrodo Red E. coli BioParticles. Representative images are shown at ×20 magnification level. FIG. 7C: Quantification of phagocytosis of mononucleated and multinucleated MG6 cells over time. After Pyk2 inhibitor treatment and cell sorting, MG6 cells were treated with pHrodo Red E. coli BioParticles for the indicated time. Fluorescence intensity was measured by fluorescence microplate reader at excitation/emission wavelengths of 560/580 nm. […] FIG. 7D: Quantification of the effect of Pyk2 inhibitor treatment on cytokine/chemokine levels of mononucleated and multinucleated MG6 cells. The relative mRNA levels of IL-6, IL-1β, IL-10, and TGF-β were measured by a real-time PCR (qPCR). Measured mRNA transcript levels are reported as the mean level±standard deviation (n=3; *: p-value<0.05; **: p-value <0.01; ***: p-value <0.005; ****: p-value <0.001; and *****: p-value <0.0005).
Next, the differences in the activity of mononucleated and multinucleated microglial cells in response to Pyk2 inhibition was further assessed. […] Mononucleated and multinucleated MG6 cells also differed regarding the cytokines and chemokines produced by each (FIG. 7D).

MG6 cells = assay: Phagocytosis of pHrodo Red E. coli BioParticles by MG6 cells (confocal, IMARIS spot analysis); settings: 1000 nM, 24 h
Procedure: FIGS. 5A-5D. Characteristics of Pyk2 inhibition on phagocytotic activity in microglia. FIG. 5A: Immunofluorescent imaging depicting phagocytosis of pHrodo Red E. coli BioParticles by MG6 cells after exposure to Pyk2 inhibitors. MG6 cells were either untreated (left) or treated with 1000 nM Pyk2 inhibitor treatment for 24 hours (right). Immunofluorescent images were obtained via confocal microscopy (×600). MG6 cells were fixed and stained with phalloidin-AlexaFluor488 to visualize actin, and with DAPI to visualize nuclei (encircled). Scale bar is 20 μm. […] FIG. 5B: Immunofluorescent imaging depicting phagocytosis of pHrodo Red E. coli BioParticles by mononucleated and multinucleated MG6 cells after exposure to Pyk2 inhibitors. MG6 cells were treated and imaged as in FIG. 5A. After obtaining three-dimensional images, BioParticles are quantified by a spot analysis using IMARIS software (bottom figures). FIG. 5C: Quantification of spot analysis in FIG. 5B. The output of IMARIS spot analysis was analyzed using one-way ANOVA. […] FIG. 5D: Phagocytotic activity for Aβ in MG6 cells. Immunostaining for Iba1 and Aβ in control and Pyk2 inhibitor treated group. MG6 cells were treated with Pyk2 inhibitor or vehicle for 24 hours and then Hilite-555 labelled Aβ42 was added for 24 hours. Data are representative images of four wells from three independent experiments. A 20 μm scale bar is in the bottom-left corner.
To assess whether or not Pyk2 inhibitor treated, multinuclear MG6 cells were also more phagocytic, treated MG6 cells were subsequently exposed to pHrodo Red E. coli BioParticles (Thermo Fisher Scientific #P35360), a fluorogenic phagocytic substrate derived from Escherichia coli. […] To assess if there was any difference in the phagocytosis of mononucleated and multinucleated MG6 cells, treated cells were assessed via confocal microscopy to generate three-dimensional images of phagocytosed particles, which were then quantified using IMARIS cell imaging software (FIG. 5B).

## CN(c1ccccc1CNc1nc(Nc2ccc3c(c2)CC(=O)N3)ncc1C(F)(F)F)S(C)(=O)=O [PF-431396]
Raw264.7; 1000 nM for 24 hours, 1 day after RANKL
  TRAP activity: statistically significant reduction; also recorded: significantly reduced
Raw264.7; inhibitor for 24 hours, 1 day after RANKL
  TRAP staining: apparent reduction
Raw264.7; inhibitor pretreatment (up to 1000 nM) before RANKL
  TRAP activity: not statistically significant; also recorded: no significant differences
Raw264.7; inhibitor pretreatment before RANKL
  TRAP staining: did not reveal any obvious difference
[1]
  IL-1β expression, mononucleated MG6 cells: increased expression
  IL-1β expression, multinucleated MG6 cells: did not
  IL-6 expression, mononucleated MG6 cells: increased expression
  IL-6 expression, multinucleated MG6 cells: did not
  IL-10, mononucleated MG6 cells: reduction
  IL-10, multinucleated MG6 cells: reduction
  TGF-β expression, multinucleated MG6 cells: increase
MG6 cells
  phagocytic activity, treated mononuclear and multinuclear microglia combined vs controls: significantly higher
MG6 cells; listed as Pyk2 inhibitor
  phagocytosis of pHrodo Red E. coli BioParticles, mononucleated treated cells vs control: no significant difference
  phagocytosis of pHrodo Red E. coli BioParticles, multinucleated treated cells vs control/mononucleated: statistically significant increase; also recorded: significantly higher
